The results in this text go back to patent publication US20220235057A1, “CYCLIC FORMYL AND CYCLIC KETONE COMPOUNDS, PREPARATION METHOD THEREFOR, AND PHARMACEUTICAL USE” (priority 2019, published 2022).

In brackets after ≈: the same amount, converted by molar mass. Some results are limits rather than exact numbers.

Common to all, as to format: cell-based
For test [1], the system named is drug resistant strains of Acinetobacter baumannii. Nature of the test: anti-drug resistant strains of Acinetobacter baumannii (MIC).
The subject of the next test is dengue virus (DENV). Nature of the test: anti-dengue virus activity (EC50).
The next test has as its system Zika virus. Nature of the test: anti-Zika virus activity (EC50).
The test system of another test is Usutu virus (USUV). The test can be described thus: anti-Usutu virus activity (inhibition rate). The conditions noted are these: Usutu virus; for inhibition at 11 µM: Drug concentration 11 μM; for inhibition at 33 µM: Drug concentration 33 μM.
Another test deals with Zika virus (ZIKV). The test can be described thus: anti-Zika virus activity (inhibition rate). As to conditions: Zika virus; for inhibition at 11 µM: Drug concentration 11 μM; for inhibition at 33 µM: Drug concentration 33 μM.
Where [2] appears, read: resistant strain of Acinetobacter baumannii no. 17.
[3] abbreviates: resistant strain of Acinetobacter baumannii no. 18.
Setting [4] is: resistant strain of Acinetobacter baumannii no. 19.
Setting [5] is: resistant strain of Acinetobacter baumannii no. 20.

For orientation: MIC means the smallest concentration in the dilution series that meets the test's criterion for growth inhibition. As for `O=C1C2Cc3ccccc3CN2C(c2ccco2)N1Nc1ccccc1` (centres unmarked) [ZSD-28B], the MIC in test [1] (setting [2]) was above 64 µg/mL; in test [1] (setting [3]), 8 µg/mL (≈ 23.2 µM); in test [1] (setting [4]), 8 µg/mL (≈ 23.2 µM); in test [1] (setting [5]) it was 8 µg/mL (≈ 23.2 µM).
Take `Nc1ccc(NNC(=O)[C@@H]2Cc3ccccc3N2)cc1` [ZBM-8]: the MIC was 2 µg/mL (≈ 7.45 µM) in test [1] (setting [2]), 4 µg/mL (≈ 14.9 µM) in test [1] (setting [3]), 2 µg/mL (≈ 7.45 µM) in test [1] (setting [4]) and 4 µg/mL (≈ 14.9 µM) in test [1] (setting [5]).
Broadly, the EC50 is the concentration giving half of the maximal effect. Read a high EC50 as a less potent agent. `O=C1[C@H]2CCc3ccccc3N2C(Cc2ccc([N+](=O)[O-])cc2)N1Nc1ccccc1` (some centres unmarked) [ZXD-100A] gave an EC50 with dengue virus (DENV) of 2000 nM.
In the test with dengue virus (DENV), `O=C1[C@@H]2CCc3ccccc3N2[C@@H](c2ccccc2O)N1Nc1ccccc1` [ZXD-120B] came in with an EC50 of 6500 nM.
On the same count and under the same terms, in the case of `O=C(NNc1ccc([N+](=O)[O-])cc1)C1CCc2ccccc2N1` (centres unmarked) [ZXD-45] it was 310 nM.
In the case of `O=C1[C@@H]2CCc3ccccc3N2[C@@H](c2ccc([N+](=O)[O-])cc2)N1Nc1ccc([N+](=O)[O-])cc1` [ZXD-78A], it took 170 nM to reach a half-maximal effect in the test on dengue virus (DENV) (EC50).
Consider `O=C(NNc1ccccc1)[C@@H]1Cc2ccccc2N1` [ZDL-101], for which the MIC in test [1] (setting [2]) worked out at 4 µg/mL (≈ 15.8 µM); in test [1] (setting [3]), 4 µg/mL (≈ 15.8 µM); in test [1] (setting [4]), 4 µg/mL (≈ 15.8 µM); in test [1] (setting [5]), 2 µg/mL (≈ 7.9 µM).
In the test on dengue virus (DENV), `O=C1C2CCc3ccccc3N2C(c2ccc(O)cc2)N1Nc1ccc([N+](=O)[O-])cc1` (centres unmarked) [ZXD-133A] registered an EC50 of 19500 nM.
Same read-out and setting: for `COc1ccc([C@H]2N(Nc3ccc([N+](=O)[O-])cc3)C(=O)[C@@H]3Cc4ccccc4N32)cc1O[Si](C)(C)C(C)(C)C` [ZDL-93] the value was 24800 nM.
As for `O=C(NNc1ccc(F)cc1)C1CNc2ccccc21` (centres unmarked) [ZBM-11], the MIC was determined as 1 µg/mL (≈ 3.69 µM) in test [1] (setting [2]), 2 µg/mL (≈ 7.37 µM) in test [1] (setting [3]), 1 µg/mL (≈ 3.69 µM) in test [1] (setting [4]) and 1 µg/mL (≈ 3.69 µM) in test [1] (setting [5]).
As to `O=C(NNc1ccc(OCc2ccccc2)cc1)[C@@H]1Cc2ccccc2N1` [ZBM-6], the MIC was found to be 2 µg/mL (≈ 5.56 µM) in test [1] (setting [2]), 4 µg/mL (≈ 11.1 µM) in test [1] (setting [3]), 2 µg/mL (≈ 5.56 µM) in test [1] (setting [4]) and 4 µg/mL (≈ 11.1 µM) in test [1] (setting [5]).
On to `COc1cc(C2N(Nc3ccccc3)C(=O)C3CCc4ccccc4N32)ccc1O[Si](C)(C)C(C)(C)C` (centres unmarked) [ZXD-142A], for which the figures for the EC50 with Zika virus and in the test on dengue virus (DENV) were 1560 ± 210 nM and 1600 nM, respectively.
Regarding `O=C(NNc1ccccc1)C1CCCCN1` (centres unmarked) [ZXD-2-1], the MIC stood at 4 µg/mL (≈ 18.2 µM) in test [1] (setting [2]), 4 µg/mL (≈ 18.2 µM) in test [1] (setting [3]), 8 µg/mL (≈ 36.5 µM) in test [1] (setting [4]) and 4 µg/mL (≈ 18.2 µM) in test [1] (setting [5]).
`O=C(NNc1ccccc1)c1c[nH]c2ccccc12` [ZFD-38]: the MIC was determined as 8 µg/mL (≈ 31.8 µM) in test [1] (setting [2]), 8 µg/mL (≈ 31.8 µM) in test [1] (setting [3]), 8 µg/mL (≈ 31.8 µM) in test [1] (setting [4]) and 4 µg/mL (≈ 15.9 µM) in test [1] (setting [5]).
`CC(C)(C)[Si](C)(C)Oc1ccc(C2N(Nc3ccc([N+](=O)[O-])cc3)C(=O)C3CCc4ccccc4N32)cc1` (centres unmarked) [ZXD-132A] yielded an EC50 in the test with dengue virus (DENV) of 640 nM.
Turning to `O=C(NNc1ccc(F)cc1)[C@@H]1Cc2ccccc2N1` [ZBM-5], the minimal inhibitory concentration (MIC) in test [1] (setting [2]) was found to be 2 µg/mL (≈ 7.37 µM); in test [1] (setting [3]), 2 µg/mL (≈ 7.37 µM); in test [1] (setting [4]), 1 µg/mL (≈ 3.69 µM); in test [1] (setting [5]), 2 µg/mL (≈ 7.37 µM).
`O=C(NNc1ccccc1)[C@@H]1Cc2ccccc2CN1` [ZSD-16]: the MIC in test [1] (setting [2]) was 2 µg/mL (≈ 7.48 µM); in test [1] (setting [3]), 8 µg/mL (≈ 29.9 µM); in test [1] (setting [4]), 4 µg/mL (≈ 15 µM); in test [1] (setting [5]), 4 µg/mL (≈ 15 µM).
`O=C1C2CCc3ccccc3N2C(c2ccc(Cl)cc2)N1Nc1ccccc1` (centres unmarked) [ZXD-87A] gave an EC50 with Zika virus of 3400 ± 380 nM.
In the case of `C=C(C)c1ccc(C2N(Nc3ccccc3)C(=O)C3CCc4ccccc4N32)cc1` (centres unmarked) [ZXD-89A], the EC50 in the test with dengue virus (DENV) is 740 nM.
`COc1ccc(C2c3c([nH]c4ccccc34)C(=O)N2Nc2ccc([N+](=O)[O-])cc2)cc1OC` (centres unmarked) [ZFD-33A + B]: it took 17200 nM to reach a half-maximal effect in the test with Zika virus (EC50).
As for `O=C(NNc1ccccc1)C1CCc2ccccc2N1` (centres unmarked) [ZXD-44], in the test with dengue virus (DENV), a half-maximal response (EC50) required 1500 nM. The MIC in test [1] (setting [2]) was found to be 4 µg/mL (≈ 15 µM); in test [1] (setting [3]) it was 8 µg/mL (≈ 29.9 µM); in test [1] (setting [4]), 8 µg/mL (≈ 29.9 µM); in test [1] (setting [5]), 2 µg/mL (≈ 7.48 µM).
`O=C(NNc1ccc(F)cc1)[C@H]1CCNC1` [ZBM-19]: the MIC amounted to 2 µg/mL (≈ 8.96 µM) in test [1] (setting [2]), 2 µg/mL (≈ 8.96 µM) in test [1] (setting [3]), 2 µg/mL (≈ 8.96 µM) in test [1] (setting [4]) and 1 µg/mL (≈ 4.48 µM) in test [1] (setting [5]).
For orientation: inhibition means the share of the control response that was lost under treatment. For `O=C1[C@@H]2CCc3ccccc3N2[C@@H](Cc2ccccc2)N1Nc1ccc([N+](=O)[O-])cc1` [ZXD-107A], the results for the inhibition at 11 µM in the test with Usutu virus (USUV) and in the test with Zika virus (ZIKV) were below 0% and above 100%, respectively. The same molecule gave an inhibition at 33 µM in the test with Usutu virus (USUV) below 0%. The same molecule displayed an EC50 with dengue virus (DENV) of 120 nM.
Turning to `O=C1[C@@H]2CCc3ccccc3N2[C@@H](c2ccccc2)N1Nc1ccc([N+](=O)[O-])cc1` [ZXD-106], the EC50 in the test on dengue virus (DENV) is 5200 nM.
Same read-out and setting: in the case of `O=C1C2CCCCN2C(c2ccco2)N1c1ccc([N+](=O)[O-])cc1` (centres unmarked) [ZBJ-12A] it was 1200 nM.
With `O=C(NNc1ccccc1)c1ccc[nH]1` [ZFD-42], the MIC in test [1] (setting [2]) amounted to 4 µg/mL (≈ 19.9 µM); in test [1] (setting [3]) it was 4 µg/mL (≈ 19.9 µM); in test [1] (setting [4]), 4 µg/mL (≈ 19.9 µM); in test [1] (setting [5]), 1 µg/mL (≈ 4.97 µM).
`O=C1[C@@H]2CCc3ccccc3N2[C@@H](Cc2ccc(O)cc2)N1Nc1ccccc1` [ZXD-127B]: in the test with dengue virus (DENV), it took 5200 nM to reach a half-maximal effect (EC50).
On the same count and under the same terms, in the case of `O=C1[C@@H]2CCc3ccccc3N2[C@@H](Cc2ccc([N+](=O)[O-])cc2)N1Nc1ccccc1` [ZXD-100B] it was 850 nM.
Consider `O=C(NNc1ccc(F)cc1)c1c[nH]c2ccccc12` [ZBM-20], for which the MIC in test [1] (setting [2]) came to 0.5 µg/mL (≈ 1.86 µM); in test [1] (setting [3]), 1 µg/mL (≈ 3.71 µM); in test [1] (setting [4]), 0.5 µg/mL (≈ 1.86 µM); in test [1] (setting [5]), 0.5 µg/mL (≈ 1.86 µM).
As to `O=C(NNc1ccc(F)cc1)c1ccc[nH]1` [ZBM-21], the MIC in test [1] (setting [2]), in test [1] (setting [3]), in test [1] (setting [4]) and in test [1] (setting [5]) was 0.5 µg/mL (≈ 2.28 µM) throughout.
As for `O=C(NNc1ccc(F)cc1)c1cc2ccccc2[nH]1` [ZFD-44], the MIC in test [1] (setting [2]) amounted to 0.5 µg/mL (≈ 1.86 µM); in test [1] (setting [3]), 1 µg/mL (≈ 3.71 µM); in test [1] (setting [4]), 1 µg/mL (≈ 3.71 µM); in test [1] (setting [5]), 1 µg/mL (≈ 3.71 µM).
Consider `COc1ccc([C@H]2N(Nc3ccc([N+](=O)[O-])cc3)C(=O)[C@@H]3Cc4ccccc4N32)cc1OC` [ZDL-89], for which a half-maximal effect in the test with dengue virus (DENV) (EC50) was put at 11600 nM.
In the test with Usutu virus (USUV), `COc1ccc(C2N(c3ccc([N+](=O)[O-])cc3)C(=O)[C@@H]3Cc4ccccc4CN23)cc1OC` (some centres unmarked) [ZSD-12B] showed an inhibition at 11 µM below 0% and an inhibition at 33 µM of 0 to 100%. In addition, in the test with Zika virus (ZIKV), the inhibition at 11 µM is below 0% and the inhibition at 33 µM was below 0%.
For the molecule `O=C1C2CCc3ccccc3N2[C@@H](c2cc3ccccc3s2)N1Nc1ccccc1` (some centres unmarked) [ZXD-178B], the figures for the inhibition at 11 µM in the test on Usutu virus (USUV) and with Zika virus (ZIKV) were 0 to 100% and above 100%, respectively.
For `C=C1CC[C@@H]2[C@]3(C)COC(C)(C)O[C@@H]3CC[C@@]2(C)[C@@H]1C[C@H]1N(Nc2ccc([N+](=O)[O-])cc2)C(=O)[C@@H]2Cc3ccccc3N21` [ZDL-43], in the test with Usutu virus (USUV), the inhibition at 11 µM is above 100% and the inhibition at 33 µM was above 100%. In the test with Zika virus (ZIKV), this molecule yielded an inhibition at 11 µM above 100% and an inhibition at 33 µM above 100%.
